Literature values as cited in patent publication US20050192272A1, “Substituted benzodiazepines as inhibitors of the chemokine receptor CXCR4” (priority 2003, published 2005).

Tests used:
CXCR4 = CXCR4 (Homo sapiens, UniProt P61073); settings: read-out: IC50 in inhibiting the binding of CXCL12 to CXCR4
[1] = rats
[2] = Phase I/II clinical trials

Chain of CXCR4 (P61073 whole entry): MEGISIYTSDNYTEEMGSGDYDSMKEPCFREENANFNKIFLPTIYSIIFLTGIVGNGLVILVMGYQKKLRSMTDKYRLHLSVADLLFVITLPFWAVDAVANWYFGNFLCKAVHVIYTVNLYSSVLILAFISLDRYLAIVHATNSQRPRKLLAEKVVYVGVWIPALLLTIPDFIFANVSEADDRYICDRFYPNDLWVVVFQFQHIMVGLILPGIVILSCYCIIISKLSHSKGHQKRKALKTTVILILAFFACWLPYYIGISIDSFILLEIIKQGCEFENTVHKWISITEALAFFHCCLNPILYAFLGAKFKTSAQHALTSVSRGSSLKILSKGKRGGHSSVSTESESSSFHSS

With c(Nal-Gly-tyr-Arg-Arg) [FC131] as the compound, how does the “level of anti-HIV activity and antagonism among CXCR4 antagonists reported to date” value (X4-strains of HIV) read?
Its value is “matched”.

What about the IC50 (CXCR4) of the same compound?
The IC50 was 4 nM.

Which “absorption from the duodenum” value [1] does the source give for C[C@H](NC(=O)[C@H](CCCNC(=N)N)NC(=O)c1ccc(CNCc2ccccn2)cc1)c1cccc2ccccc12 [KRH-1636] here?
The value was “absorbed from the duodenum in rats”.

For c1cc(CN2CCCNCCNCCCNCC2)ccc1CN1CCCNCCNCCCNCC1 [AMD3100], which cardiac toxicity [2] is on record?
Its cardiac toxicity is “exhibited certain cardiac toxicity properties”.

And the effectiveness [2]?
The effectiveness was “limited effectiveness”.

With c1cc(CN2CCCNCCNCCCNCC2)ccc1CN1CCCNCCNCCCNCC1 [ALX40-4C] as the compound, how does the acute cardiac toxicity (month-long clinical study, 1995) read?
Its acute cardiac toxicity is “did not exhibit any acute cardiac toxicity”.

And the adverse side effects (one-month Phase I/II clinical study)?
The adverse side effects was “no adverse side effects”.

For “[Tyr^5,12, Lys^7]-polyphemusin II [T-22]”, which “inhibition of multiplication of X4-strains of HIV” value (X4-strains of HIV; through specific binding to the CXCR4 receptor) is on record?
The value was “strongly inhibit”.
